One assay addresses mTORC1 (Homo sapiens, UniProt P42345). Briefly: mTOR/GbL/Raptor (mTORC1) ELISA Assay. Type of assay: biochemical. To be noted: phosphorylation of 4E-BP1; 0.2 nM mTORC1, 10 μM ATP. On the procedure: The measurement of mTORC1 enzyme activity was performed in an ELISA assay format following the phosphorylation of 4E-BP1 protein. All experiments were performed in the 384-well format. Generally, 0.5 μL DMSO containing varying concentrations of the test compound was mixed with 15 μL enzyme solution. Kinase reactions were initiated with the addition of 15 μL of substrates-containing solution. The assay conditions were as follows; 0.2 nM mTORC1, 10 μM ATP and 50 nM NHis-tagged 4E-BP1 in 20 mM Hepes, pH 7.2, 1 mM DTT, 50 mM NaCl, 10 mM MnCl2, 0.02 mg/mL BSA, 0.01% CHAPS, 50 mM β-glycerophosphate. Following an incubation of 120 minutes at ambient temperature, 20 μL of the reaction volume was transferred to a Ni-Chelate-coated 384-well plate. The binding step of the 4E-BP1 protein proceeded for 60 minutes, followed by washing 4 times each with 50 μL of Tris-buffered saline solution (TBS). Anti-phospho-4E-BP1 rabbit-IgG (20 μL, 1:5000) in 5% BSA-TBST (0.2% Tween-20 in TBS) was added and further incubated for 60 minutes. Incubation with a secondary HRP-tagged anti-IgG was similarly performed after washing off the primary antibody (4 washes of 50 μL). Following the final wash step with TBST, 20 μL of SuperSignal ELISA Femto (Pierce Biotechnology) was added and the luminescence measured using an EnVision plate reader.

The target in the next assay is PI3Kalpha (Homo sapiens, UniProt P42336). Briefly: PI3K Biochemical Assays (PI3K-alpha assay). To be noted: ATP consumption, luciferase-luciferin; 1 μM ATP, 10 μM PIP2. On the procedure:
PI3Kn activity was measured as the percent of ATP consumed following the kinase reaction using luciferase-luciferin-coupled chemiluminescence. Reactions were conducted in 384-well white, medium binding microtiter plates (Greiner). Kinase reactions were initiated by combining test compounds, ATP, substrate (PIP2), and kinase in a 20 μL volume in a buffer solution. The standard PI3Kalpha assay buffer was composed 50 mM Tris, pH 7.5, 1 mM EGTA, 10 mM MgCl2, 1 mM DTT and 0.03% CHAPS. The standard assay concentrations for enzyme, ATP, and substrate were 3 nM, 1 μM, and 10 μM, respectively. The reaction mixture was incubated at ambient temperature for approximately 2 h. Following the kinase reaction, a 10 μL aliquot of luciferase-luciferin mix (Promega Kinase-Glo) was added and the chemiluminescence signal measured using a Victor2 or EnVision (Perkin Elmer). Total ATP consumption was limited to 40-60% and IC50 values of control compounds correlate well with literature references. Substituting PI3Kα with PI3Krβ, PI3Kγ, or PI3Kδ, the inhibitory activity of the compounds for the other isoforms of PI3K were measured. For the PI3Kβ and PI3Kδ assays, enzyme concentrations were 10 nM and 4 nM, respectively. For the PI3Kγ assay, enzyme concentration was 40 nM, the incubation time was 1 h, and the concentration of MgCl2 in the assay buffer was 5 mM.

Sequence of PI3Kalpha (P42336 whole entry): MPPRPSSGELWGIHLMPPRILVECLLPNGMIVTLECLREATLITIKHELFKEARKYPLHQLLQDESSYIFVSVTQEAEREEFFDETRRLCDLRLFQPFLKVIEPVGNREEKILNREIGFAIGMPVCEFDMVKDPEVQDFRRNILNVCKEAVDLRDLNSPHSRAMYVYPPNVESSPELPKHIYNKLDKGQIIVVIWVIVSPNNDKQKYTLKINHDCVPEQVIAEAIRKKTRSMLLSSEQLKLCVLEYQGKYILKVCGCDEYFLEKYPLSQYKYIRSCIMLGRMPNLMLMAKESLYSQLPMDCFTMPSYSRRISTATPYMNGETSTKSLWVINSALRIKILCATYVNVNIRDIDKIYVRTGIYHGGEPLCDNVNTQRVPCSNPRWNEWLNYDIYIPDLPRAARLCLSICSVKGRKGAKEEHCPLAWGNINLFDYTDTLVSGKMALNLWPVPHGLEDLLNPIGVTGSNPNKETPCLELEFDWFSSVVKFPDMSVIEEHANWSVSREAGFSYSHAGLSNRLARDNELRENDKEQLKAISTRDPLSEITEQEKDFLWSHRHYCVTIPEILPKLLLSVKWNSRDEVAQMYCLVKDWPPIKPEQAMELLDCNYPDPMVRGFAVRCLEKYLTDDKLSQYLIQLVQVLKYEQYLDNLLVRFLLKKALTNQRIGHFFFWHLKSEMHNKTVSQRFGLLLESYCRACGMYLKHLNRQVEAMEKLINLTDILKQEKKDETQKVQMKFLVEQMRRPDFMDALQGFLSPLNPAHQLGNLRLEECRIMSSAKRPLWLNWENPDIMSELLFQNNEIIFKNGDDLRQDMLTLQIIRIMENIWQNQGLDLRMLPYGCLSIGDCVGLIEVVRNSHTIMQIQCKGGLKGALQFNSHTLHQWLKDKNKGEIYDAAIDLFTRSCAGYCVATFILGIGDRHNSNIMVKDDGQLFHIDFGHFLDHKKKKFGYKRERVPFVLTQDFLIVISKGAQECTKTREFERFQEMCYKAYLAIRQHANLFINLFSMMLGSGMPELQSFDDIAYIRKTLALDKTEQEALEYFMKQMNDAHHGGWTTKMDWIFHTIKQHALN
Sequence of PI3Kalpha (P27986 whole entry partner): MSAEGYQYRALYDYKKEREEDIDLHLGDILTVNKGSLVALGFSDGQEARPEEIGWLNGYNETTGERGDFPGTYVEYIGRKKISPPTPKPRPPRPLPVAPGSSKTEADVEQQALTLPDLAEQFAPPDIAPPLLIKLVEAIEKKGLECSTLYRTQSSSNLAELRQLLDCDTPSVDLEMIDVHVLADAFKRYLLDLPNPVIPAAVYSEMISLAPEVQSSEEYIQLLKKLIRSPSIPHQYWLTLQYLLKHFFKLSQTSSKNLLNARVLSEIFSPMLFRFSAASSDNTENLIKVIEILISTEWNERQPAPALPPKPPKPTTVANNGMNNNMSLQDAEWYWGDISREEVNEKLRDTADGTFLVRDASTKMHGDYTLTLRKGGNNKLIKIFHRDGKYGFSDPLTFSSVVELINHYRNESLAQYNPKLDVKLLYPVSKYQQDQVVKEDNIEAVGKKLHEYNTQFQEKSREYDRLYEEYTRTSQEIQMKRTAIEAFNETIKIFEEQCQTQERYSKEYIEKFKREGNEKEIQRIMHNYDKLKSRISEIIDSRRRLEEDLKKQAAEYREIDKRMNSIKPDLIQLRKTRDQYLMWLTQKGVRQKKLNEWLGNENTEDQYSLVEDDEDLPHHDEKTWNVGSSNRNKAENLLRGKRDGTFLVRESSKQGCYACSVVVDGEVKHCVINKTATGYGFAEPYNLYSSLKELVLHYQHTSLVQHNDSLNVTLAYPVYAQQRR

With `Cc1nc(CN(C)C)nc(N2CCOc3ccc(-c4cnc5sc(N)nc5c4)cc3C2)c1CC1CC1` [Compound 27, 6-(4-{5-(cyclopropylmethyl)-2-[(dimethylamino)methyl]-6-methylpyrimidin-4-yl}-2,3,4,5-tetrahydro-1,4-benzoxazepin-7-yl)[1,3]thiazolo[5,4-b]pyridin-2-amine], the IC50 against mTORC1 and at PI3Kalpha was no more than 100 nM in each case.

As to `CCCc1cnc(N)nc1N1CCOc2ccc(-c3cnc4sc(N)nc4c3)cc2C1` [Compound 33, 6-[4-(2-amino-5-propylpyrimidin-4-yl)-2,3,4,5-tetrahydro-1,4-benzoxazepin-7-yl][1,3]thiazolo[5,4-b]pyridin-2-amine], the IC50 on mTORC1 and on PI3Kalpha was no more than 100 nM each time.

With `C#CCc1c(C)nc(N)nc1N1CCOc2ccc(-c3cnc4sc(N)nc4c3)cc2C1` [Compound 71, 6-[4-(2-amino-6-methyl-5-prop-2-yn-1-ylpyrimidin-4-yl)-2,3,4,5-tetrahydro-1,4-benzoxazepin-7-yl][1,3]thiazolo[5,4-b]pyridin-2-amine], the IC50 on mTORC1 and against PI3Kalpha was no more than 100 nM in each case.

For the compound `Cc1nc(N)nc(N2CCOc3ccc(-c4cnc5sc(N)nc5c4)cc3C2)c1C=O` [Compound 42, 2-amino-4-[7-(2-amino[1,3]thiazolo[5,4-b]pyridin-6-yl)-2,3-dihydro-1,4-bcnzoxazepin-4(5H)-yl]-6-methylpyrimidine-5-carbaldehyde], the IC50 – broadly, the concentration that gives 50% inhibition – at mTORC1 is 100 to 500 nM; at PI3Kalpha, no more than 100 nM.

As to `CC(C)c1c(Br)nc(N)nc1N1CCOc2ccc(-c3cnc4sc(N)nc4c3)cc2C1` [Compound 19, 6-{4-[2-amino-6-bromo-5-(1-methylethyl)pyrimidin-4-yl]-2,3,4,5-tetrahydro-1,4-benzoxazepin-7-yl}[1,3]thiazolo[5,4-b]pyridin-2-amine], the IC50 against mTORC1 and at PI3Kalpha was no more than 100 nM each time.

`Nc1cc(N2CCOc3ccc(-c4cnc5sc(N)nc5c4)cc3C2)ccn1` [Compound 94, 6-[4-(2-aminopyridin-4-yl)-2,3,4,5-tetrahydro-1,4-benzoxazepin-7-yl][1,3]thiazolo[5,4-b]pyridin-2-amine]: the IC50 at mTORC1 and against PI3Kalpha was 500 to 2500 nM throughout.

In the case of `C=C(C)c1c(C)nc(N)nc1N1CCOc2ccc(-c3cnc4sc(N)nc4c3)cc2C1` [Compound 30, 6-{4-[2-amino-6-methyl-5-(1-methylethenyl)pyrimidin-4-yl]-2,3,4,5-tetrahydro-1,4-benzoxazepin-7-yl}[1,3]thiazolo[5,4-b]pyridin-2-amine], the concentration for half-maximal inhibition (IC50) against mTORC1 and against PI3Kalpha was no more than 100 nM each time.

As for `Nc1cc(N2CCOc3ccc(-c4cnc5sc(N)nc5c4)cc3C2)nc(Cl)n1` [Compound 51, 6-[4-(6-amino-2-chloropyrimidin-4-yl)-2,3,4,5-tetrahydro-1,4-benzoxazepin-7-yl][1,3]thiazolo[5,4-b]pyridin-2-amine], the IC50 against mTORC1 is 100 to 500 nM; at PI3Kalpha, 500 to 2500 nM.

For the compound `Cc1nc(CN(C)C)nc(N2CCOc3ccc(-c4cnc5sc(N)nc5c4)cc3C2)c1C` [Compound 2, 6-(4-{2-[(dimethylamino)methyl]-5,6-dimethylpyrimidin-4-yl}-2,3,4,5-tetrahydro-1,4-benzoxazepin-7-yl)[1,3]thiazolo[5,4-b]pyridin-2-amine], the IC50 was 500 to 2500 nM against mTORC1 and no more than 100 nM on PI3Kalpha.

`Cc1nc(N)nc(N2CCOc3ccc(-c4cnc5sc(N)nc5c4)cc3C2)c1-c1cccc(F)c1` [Compound 40, 6-{4-[2-amino-5-(3-fluorophenyl)-6-methylpyrimidin-4-yl]-2,3,4,5-tetrahydro-1,4-benzoxazepin-7-yl}[1,3]thiazolo[5,4-b]pyridin-2-amine]: the IC50 at mTORC1 and at PI3Kalpha was no more than 100 nM each time.

With `COC(C)c1c(Cl)nc(N)nc1N1CCOc2ccc(-c3cnc4sc(N)nc4c3)cc2C1` (centres unmarked) [Compound 96, 6-(4-{2-amino-6-chloro-5-[1-(methyloxy)ethyl]pyrimidin-4-yl)-2,3,4,5-tetrahydro-1,4-benzoxazepin-7-yl)[1,3]thiazolo[5,4-b]pyridin-2-amine], the IC50 against mTORC1 and against PI3Kalpha was no more than 100 nM in each case.

With `CC(C)c1c(F)nc(N)nc1N1CCOc2ccc(-c3cnc4sc(N)nc4c3)cc2C1` [Compound 10, 6-{4-[2-amino-6-fluoro-5-(1-methylethyl)pyrimidin-4-yl]-2,3,4,5-tetrahydro-1,4-benzoxazepin-7-yl}[1,3]thiazolo[5,4-b]pyridin-2-amine], the IC50 on mTORC1 and at PI3Kalpha was no more than 100 nM in each case.

Regarding `COCCc1c(C)nc(CN(C)C)nc1N1CCOc2ccc(-c3cnc4sc(N)nc4c3)cc2C1` [Compound 13, 6-(4-{2-[(dimethylamino)methyl]-6-methyl-5-[2-(methyloxy)ethyl]pyrimidin-4-yl}-2,3,4,5-tetrahydro-1,4-benzoxazepin-7-yl)[1,3]thiazolo[5,4-b]pyridin-2-amine], the IC50 on mTORC1 is 100 to 500 nM; against PI3Kalpha, no more than 100 nM.

For `C=CCc1c(C)nc(CN(C)C)nc1N1CCOc2ccc(-c3cnc4sc(N)nc4c3)cc2C1` [Compound 70, 6-(4-{2-[(dimethylamino)methyl]-6-methyl-5-prop-2-en-1-ylpyrimidin-4-yl}-2,3,4,5-tetrahydro-1,4-benzoxazepin-7-yl)[1,3]thiazolo[5,4-b]pyridin-2-amine], the IC50 against mTORC1 and against PI3Kalpha was no more than 100 nM throughout.

For the compound `Cc1nc(CN(C)C)nc(N2CCOc3ccc(-c4cnc5sc(N)nc5c4)cc3C2)c1C(C)C` [Compound 55, 6-(4-{2-[(dimethylamino)methyl]-6-methyl-5-(1-methylethyl)pyrimidin-4-yl}-2,3,4,5-tetrahydro-1,4-benzoxazepin-7-yl)[1,3]thiazolo[5,4-b]pyridin-2-amine], the IC50 against mTORC1 and against PI3Kalpha was no more than 100 nM throughout.

On to `CCc1c(C)nc(CN(C)C)nc1N1CCOc2ccc(-c3cnc4sc(N)nc4c3)cc2C1` [Compound 1, 6-(4-{2-[(dimethylamino)methyl]-5-ethyl-6-methylpyrimidin-4-yl)-2,3,4,5-tetrahydro-1,4-benzoxazepin-7-yl)[1,3]thiazolo[5,4-b]pyridin-2-amine], for which the IC50 at mTORC1 is 100 to 500 nM; at PI3Kalpha it was no more than 100 nM.

On to `CCc1nc(N)nc(N2CCOc3ccc(-c4cnc5sc(N)nc5c4)cc3C2)c1C(C)C` [Compound 29, 6-{4-[2-amino-6-ethyl-5-(1-methylethyl)pyrimidin-4-yl]-2,3,4,5-tetrahydro-1,4-benzoxazepin-7-yl}[1,3]thiazolo[5,4-b]pyridin-2-amine], for which the IC50 against mTORC1 and on PI3Kalpha was no more than 100 nM each time.

`CCc1c(C)nc(N)nc1N1CCOc2ccc(-c3cnc4sc(N)nc4c3)cc2C1` [Compound 6, 6-[4-(2-amino-5-ethyl-6-methylpyrimidin-4-yl)-2,3,4,5-tetrahydro-1,4-benzoxazepin-7-yl][1,3]thiazolo[5,4-b]pyridin-2-amine]: the IC50 on mTORC1 and on PI3Kalpha was no more than 100 nM in each case.

As for `Nc1nc(Cl)c(CO)c(N2CCOc3ccc(-c4cnc5sc(N)nc5c4)cc3C2)n1` [Compound 43, {2-amino-4-[7-(2-amino[1,3]thiazolo[5,4-b]pyridin-6-yl)-2,3-dihydro-1,4-benzoxazepin-4(5H)-yl]-6-chloropyrimidin-5-yl}methanol], the IC50 at mTORC1 is 100 to 500 nM; at PI3Kalpha it was no more than 100 nM.

Consider `Cc1nc(CN2CCCC2)nc(N2CCOc3ccc(-c4cnc5sc(N)nc5c4)cc3C2)c1C(C)C` [Compound 28, 6-{4-[6-methyl-5-(1-methylethyl)-2-(pyrrolidin-1-ylmethyl)pyrimidin-4-yl]-2,3,4,5-tetrahydro-1,4-benzoxazepin-7-yl}[1,3]thiazolo[5,4-b]pyridin-2-amine], for which the IC50 at mTORC1 and against PI3Kalpha was no more than 100 nM each time.

For the compound `CNc1nc(C)c(C(C)C)c(N2CCOc3ccc(-c4cnc5sc(N)nc5c4)cc3C2)n1` [Compound 92, 6-{4-[6-methyl-2-(methylamino)-5-(1-methylethyl)pyrimidin-4-yl]-2,3,4,5-tetrahydro-1,4-benzoxazepin-7-yl}[1,3]thiazolo[5,4-b]pyridin-2-amine], the IC50 on mTORC1 is no more than 100 nM.

(Values after patent publication US20140018347A1, “BENZOXAZEPINES AS INHIBITORS OF mTOR AND METHODS OF THEIR USE AND MANUFACTURE” (Exelixis, Inc., priority 2010, published 2014).)
